How the values were obtained:
[1] = Thermal stability testing at 60° C. of ingredient and 1% premix (HPLC); format: physicochemical
Method: Preparation of a sample of 1% premix of an ingredient: 1 g of an ingredient was respectively weighed out and evenly mixed with 99 g of corncob meal in a mixer to give a sample of 1% premix of an ingredient for testing.
Thermal stability testing at 60° C.: The samples of an ingredient and 1% premix thereof were respectively spread in petri dishes to form thin layers of <5 mm, and kept at 60° C. Two replications for a sample were taken in parallel on day 5 and day 10 for HPLC analysis.
25.0 mg of an ingredient was accurately weighed out and dissolved in an appropriate amount of methanol by ultrasonication. The solution was then transferred to a volumetric flask and diluted to 25 mL with methanol to give a stock solution. The samples from the stock solution were diluted with methanol respectively to a concentration of 100 ppm, 500 ppm, and 1000 ppm of work solution, and then the working solutions were filtered by 0.22 μm organic membranes. Between the concentration of a sample and the response value of HPLC peak area thereof, the linearity was adjusted and detected to give a standard curve.
2.3: Preparation of Sample Solution 25.0 mg of an ingredient and 2.0000 g of a sample of 1% premix thereof were respectively accurately weighed out, and dissolved in 25 mL of methanol by ultrasonication for 10 minutes. The resulting solutions were filtered by organic membranes and then analyzed by HPLC. 2.4: Testing Conditions for HPLC • Column: Symmetry Cis column (Waters; 250 mm*4.6 mm, 5 μm). • Mobile phase: 0.02% phosphoric acid:methanol=5:95 (v:v). • Wavelength: 235 nm. • Temperature of the Column: 25° C. • Injection volume: 10 μL. • Flow rate: 1 mL/min. 3: Results

[2] = Long-term stability in feeds at room temperature (25° C.±2° C., RH 60%±10%; HPLC); format: physicochemical; conditions: for stability / content in feeds at room temperature (in words): during the testing period
Text: Feeds: ZUSF's premixed feed (A mixture of crushed Feed A and crushed Feed B at a weight ratio of 2:1, wherein Feed A was a 5.33% multi-premixed feed for piglets from ZUSF's Hao-Ru-Zhen-Jing, and B was a 2.67% multi-premixed feed for piglets from ZUSF's Hao-Ru-Zhen-Jing); creep feed for piglets from CP FEED; INSIGHTER's feed for broiler; 4% premixed feed from GUANGDONG CO-POWER.
Preparation of a sample of 1% premix of Ingredient: 1 g of an ingredient was respectively weighed out and evenly mixed with 99 g of corncob meal in a mixer to give a sample of 1% premix of an ingredient.
Preparation of a sample of 500 ppm feed of an ingredient: The sample of 1% premix of an ingredient was diluted step by step using the ZUSF's remixed feed to 5000 ppm and 500 ppm to give the sample of 500 ppm feed of an ingredient for later testing.
Preparation of a sample of 100 ppm feed of an ingredient: sample of 1% premix of an ingredient was diluted step by step using the creep feed for piglets from CP FEED to 1000 ppm and then 100 ppm to give the sample of 100 ppm feed of an ingredient for later testing.
Preparation of a sample of 100 ppm feed of an ingredient: The sample of 1% premix of an ingredient was diluted step by step using the INSIGHTER's feed for broiler to 1000 ppm and 100 ppm to give the sample of 100 ppm feed of an ingredient for later testing.
Preparation of a sample of 2000 ppm feed of an ingredient: The sample of 1% premix of an ingredient was diluted step by step using the 4% premixed feed from GUANGDONG CO-POWER to 5000 ppm and 2000 ppm to give the sample of 2000 ppm feed of an ingredient for later testing.
Method: Three replications of each feed sample were tested at the condition of 25° C.±2° C. and RH 60%±10%, wherein the replications of each feed sample were sampled in parallel for HPLC analysis on day 5, day 10, day 15, day 30, day 60, and day 90.
25.0 mg of an ingredient was accurately weighed out and dissolved in an appropriate amount of methanol or n-hexane by ultrasonication. The solution was then transferred to a volumetric flask and diluted to 50 mL to give a 500 ppm (by wt.) stock solution. The samples from the stock solution were diluted with methanol or n-hexane respectively to a concentration of 10 ppm, 25 ppm, 50 ppm, 100 ppm, and 250 ppm of work solution, and then the working solutions were filtered by 0.22 μm organic membranes. Between the concentration of a sample and the response value of HPLC peak area thereof, the linearity was adjusted and detected to give a standard curve.
5.0000 g of the samples sampled at different time intervals were respectively accurately weighed out, and dissolved in 25 mL of methanol or n-hexane by ultrasonication for 10 minutes. The resulting solutions were filtered by organic membranes and then analyzed by HPLC.
• Equipment: Waters e2695 with PDA detector. • Mobile phase: 0.02% phosphoric acid:methanol=5:95 (v:v). • Column: Symmetry Cis column (Waters; 250 mm×4.6 mm, 5 μm). • Wavelength: 235 nm. • Temperature of the Column: 25° C. • Injection volume: 10 μL. • Flow rate: 1 mL/min. Normal Phase Chromatography: • Equipment: Shimadzu LC-14C/SPD-15C. • Column: SuperSil NH2 column ([…]; 250 mm×4.6 mm). • Mobile phase: n-hexane:isopropanol=60:40 (v:v). • Wavelength: 235 nm. • Temperature of the Column: 25° C. • Injection volume: 20 μL. • Flow rate: 1 mL/min. 3: Results

[3] = 1% Premix of an ingredient (corncob meal), Day 5
[4] = 1% Premix of an ingredient (corncob meal), Day 10
[5] = 100 ppm in INSIGHTER's broiler feed, Day 5
[6] = 100 ppm in INSIGHTER's broiler feed, Day 15
[7] = 100 ppm in INSIGHTER's broiler feed, Day 30
[8] = 100 ppm in INSIGHTER's broiler feed, Day 60
[9] = 100 ppm in creep feed for piglets from CP FEED, Day 5
[10] = 100 ppm in creep feed for piglets from CP FEED, Day 15
[11] = 100 ppm in creep feed for piglets from CP FEED, Day 30
[12] = 100 ppm in creep feed for piglets from CP FEED, Day 60
[13] = 100 ppm in creep feed for piglets from CP FEED, Day 90
[14] = 500 ppm in ZUSF's premixed feed, Day 5
[15] = 500 ppm in ZUSF's premixed feed, Day 15
[16] = 500 ppm in ZUSF's premixed feed, Day 30
[17] = 500 ppm in ZUSF's premixed feed, Day 60
[18] = 500 ppm in ZUSF's premixed feed, Day 90

Residual amount of active ingredient [1, 3]	Residual amount of active ingredient [1, 4]	Residual amount of active ingredient ([1]; Ingredient, Day 5)	Residual amount of active ingredient ([1]; Ingredient, Day 10)	Residual amount of active ingredient [2, 5]	Residual amount of active ingredient [2, 6]	Residual amount of active ingredient [2, 7]	Residual amount of active ingredient [2, 8]	Residual amount of active ingredient [2, 9]	Residual amount of active ingredient [2, 10]	Residual amount of active ingredient [2, 11]	Residual amount of active ingredient [2, 12]	Residual amount of active ingredient [2, 13]	Residual amount of active ingredient [2, 14]	Residual amount of active ingredient [2, 15]	Residual amount of active ingredient [2, 16]	Residual amount of active ingredient [2, 17]	Residual amount of active ingredient [2, 18]	stability / content in feeds at room temperature (in words) [2]	SMILES	also measured
99.40%	98.68%	99.69%	99.44%	94.93%	81.77%	72.30%	71.97%	97.69%	96.27%	96.22%	96.16%	95.08%	96.65%	96.65%	96.84%	95.23%	85.29%	relatively poor in some of the feeds	CC(=O)OC1=C(CCC(C)C)C(=O)C(CCC(C)C)(CCC(C)C)C(O)=C1C(=O)C(C)C [hexahydro-colupulone mono-acetate, Hexahydro-Colupulone Mono-Acetate]	–
98.21%	97.57%	99.76%	99.64%	99.00%	98.79%	98.39%	98.11%	98.19%	96.62%	95.70%	95.47%	95.77%	100.31%	98.23%	96.01%	96.13%	95.29%	–	CCCC(=O)OC1=C(CCC(C)C)C(=O)C(CCC(C)C)(CCC(C)C)C(O)=C1C(=O)C(C)C [hexahydro-colupulone mono-butyrate]	Residual amount of active ingredient ([2]; 2000 ppm in 4% premixed feed from GUANGDONG CO-POWER, Day 5): 98.62%; Residual amount of active ingredient ([2]; 2000 ppm in 4% premixed feed from GUANGDONG CO-POWER, Day 15): 95.56%; Residual amount of active ingredient ([2]; 2000 ppm in 4% premixed feed from GUANGDONG CO-POWER, Day 30): 95.48%; Residual amount of active ingredient ([2]; 2000 ppm in 4% premixed feed from GUANGDONG CO-POWER, Day 60): 96.34%; Residual amount of active ingredient ([2]; 2000 ppm in 4% premixed feed from GUANGDONG CO-POWER, Day 90): 95.41%
97.02%	93.56%	99.76%	99.10%	–	–	–	–	98.28%	96.93%	93.07%	77.54%	68.28%	–	–	–	–	–	decreased substantially	CC(C)CCC1=C(O)C(C(=O)C(C)C)=C(O)C(CCC(C)C)(CCC(C)C)C1=O [hexahydro-colupulone, reference compound]	change of active ingredient ([1]; active ingredient of 1% premix, 10-day testing period): more than 5%
